The structures appear in SMILES notation. Like-named read-outs stand apart in the source and are kept apart here. Marks after values point to notes of the source that are not given here. A value given as a limit tells only on which side of the number the result lay.

The text below walks through data of patent US20240239790A1, “7-Morpholino-1,6-Naphthyridin-5-yl Derivatives and Pharmaceutical Compositions Thereof Useful as DNA-PK Inhibitor” (adMare Therapeutics Society, priority 2021, published 2024).

The nature of data set [1]: Microsomal Stability Assay, mouse liver microsomes. In kind it is in vitro ADME. The settings on record: for microsomal CLint at 0.1 uM: male, CD-1, pH 7.4, mouse liver microsomes 0.1 mg/mL, 0.1 uM compound; for Microsomal Stability Mouse % rem. 60 min: mouse liver microsomes. The procedure: (§1) Samples were then mixed and centrifuged. Supernatants were used for HPLC-MS/MS analysis. […] Peak areas corresponding to the test compound were recorded.

The nature of data set [2]: Microsomal Stability Assay, human liver microsomes. In kind it is in vitro ADME. The settings on record: for microsomal CLint at 0.1 uM: both sexes, pH 7.4, human liver microsomes 0.1 mg/mL, 0.1 uM compound; for Microsomal Stability Human % rem. 60 min: human liver microsomes. The procedure:
as §1

The nature of data set [3]: Pharmacokinetic study in mice (IV and PO), plasma. Format: in vivo, mouse. The note with it: for Rsq: Mouse Plasma, fit of NCA; for Cmax: read-out: Cmax (5 min). The procedure: Pharmacokinetic analysis of compounds was conducted following bolus intravenous (IV) or bolus oral (PO) gavage in mice. Female mice (C57BL/6) in the 17-26 g range were weighed, and then administered an individually prescribed dose volume based on body weight of formulated compound via the intravenous (IV; tail vein) or oral gavage (PO) route (IV 5 mL/kg; PO 10 mL/kg). At selected timepoints post administration, blood was collected into vials with anticoagulant, processed for plasma by centrifugation, and then kept frozen ([…]) until analysis.
The in-vivo study plasma samples were analyzed using Ultra Performance Liquid Chromatography (UPLC) with tandem mass spectrometry (MS/MS) detection in multiple reaction monitoring (MRM) mode. A generic bioanalytical method involving plasma sample extraction and cleanup by protein precipitation with acetonitrile was used followed by UPLC-MS/MS analysis.
A brief example of a generic bioanalytical UPLC-MS/MS method used for analysis of compounds in the in-vivo study plasma samples is as follows. Plasma samples were spiked with internal standard prior to extraction and cleanup by protein precipitation with ice cold acetonitrile containing 0.1% (v/v) ammonium hydroxide at a ratio of 3:1 (solvent:plasma) and centrifuged at 18213 rcf for 15 minutes at 4° C. to pellet precipitates. Aliquots of supernatants were transferred to a 96-well plate and evaporated to dryness at 40° C. under a stream of nitrogen gas. Samples were reconstituted in 50:50 acetonitrile/10 mM ammonium acetate buffer pH 8, mixed thoroughly and analyzed using Ultra Performance Liquid Chromatography (UPLC) with tandem mass spectrometry (MS/MS) detection in multiple reaction monitoring (MRM) mode. Matrix-matched calibration standards and quality control (QC) samples were prepared in naïve C57Bl/6 mouse plasma. The UPLC column used was Waters Acquity UPLC BEH C18 1.7 um, 2.1 mm×50 mm (with guard column). The UPLC mobile phase consisted of: Mobile phase A: 10 mM ammonium acetate in Water pH 8, and Mobile phase B: Acetonitrile. Separation was accomplished with a linear gradient of 5% mobile phase B to 95% mobile phase B in 2 min, and a flow rate of 0.35 mL/min. The MS/MS data acquisition was accomplished using 3 MRM Transitions in ESI+ mode. Parent ion mass 508.37 m/z-to-Daughter ions (m/z) 117.05, 232.13 and 270.22. The quantitation of concentrations in test samples was achieved by matrix-matched calibration with normalization using an internal standard. Data acquisition and analysis were performed using Waters MassLynx software with TargetLynx application manager.
Estimation of PK parameters was performed using independent noncompartmental model method by PHOENIX WinNonlin software.

Data set [4] has as its target T1, DNA-PK phosphorylation at Serine 2056 (Homo sapiens, UniProt P78527).
T1 construct: FaDu cells were purchased from ATCC; host or cells: FaDu
In words: Cellular Assay for Inhibition of DNA-PK Phosphorylation at Serine 2056 in FaDu cells (sandwich ELISA, neocarzinostatin). In kind it is cell-based. The note with it: pSer2056 DNA-PK, neocarzinostatin 1 μg/mL, Table 1. A digest of the protocol: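 pSer2056 and total DNA-PK were measured by sandwich ELISA in BCA-normalised FaDu lysates. Cells had 1 h compound exposure (0.3% DMSO), then 2 h with 1 μg/mL final neocarzinostatin. IC50 was fitted (variable slope) to % inhibition scaled against NCS-stimulated and DMSO-only controls.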

The mark [5] stands for this setting: female, C57BL/6, po, mouse plasma, PC, 3 mg/kg.
Where [6] appears, read: female, C57BL/6, mouse plasma, IV, 1 mg/kg.
[7] abbreviates: female, C57BL/6, mouse plasma, IV, 3 mg/kg.
Setting [8] is: female, C57BL/6, mouse plasma, PO, 10 mg/kg.

Turning to `CN(C)C(=O)COc1cnc(N[C@H]2CC[C@@H](Oc3nc(N4CCOCC4)cc4ncccc34)CC2)nc1` [Compound 54, N,N-Dimethyl-2-((2-(((1s,4s)-4-((7-morpholino-1,6-naphthyridin-5-yl)oxy)cyclohexyl)amino)pyrimidin-5-yl)oxy)acetamide], in data set [1], the microsomal CLint at 0.1 uM is below 116 µL/min/mg and the “Microsomal Stability Mouse % rem. 60 min” value was “G (% remaining = 50-75%)”. Besides, in data set [2], the microsomal CLint at 0.1 uM was above 116 µL/min/mg and the “Microsomal Stability Human % rem. 60 min” value is “E (% remaining = 0-25%)”. Also, in data set [3] (setting [5]), the AUC(0-t) was 7650 ng·h/mL, the Cmax at 5 min was 2220 ng/mL and the half-life is 2.33 h. For the same molecule, the AUC(0-inf) in data set [3] (female, C57BL/6, po, mouse plasma, PC, 3 mg/kg, read-out: AUCINF—obs) was found to be 7660 ng·h/mL. In data set [3] (setting [6]), this molecule had an AUC(0-t) of 3700 ng·h/mL, a C0 of 3310 ng/mL, a Cmax at 5 min of 2820 ng/mL and a half-life of 1.69 h. Moreover, the AUC(0-inf) in data set [3] (female, C57BL/6, mouse plasma, IV, 1 mg/kg, read-out: AUCINF—obs) is 3710 ng·h/mL. Besides, in data set [3] (mouse plasma, IV, 1 mg/kg), the “AUC—% Extrap—obs” value amounted to 0.10%, the Cl_obs turned out to be 264 mL/h/kg and the Vz_obs came to 646 mL/kg. Also, in data set [3] (mouse plasma, PC, 3 mg/kg), the “AUC—% Extrap—obs” value was 0.07%, the Cl_obs was 358^b mL/h/kg and the Vz_obs is given as 1205^a mL/kg. The F in data set [3] (mouse, PC, 3 mg/kg) was determined as 74%. In data set [4], the concentration for half-maximal inhibition (IC50) was below 100 nM.

Take `O=C(COc1cnc(N[C@H]2CC[C@@H](Oc3nc(N4CCOCC4)cc4ncccc34)CC2)nc1)N1CCOCC1` [Compound 61, 1-Morpholino-2-((2-(((1s,4s)-4-((7-morpholino-1,6-naphthyridin-5-yl)oxy)cyclohexyl)amino)pyrimidin-5-yl)oxy)ethan-1-one]: in data set [1], the microsomal CLint at 0.1 uM is below 116 µL/min/mg and the “Microsomal Stability Mouse % rem. 60 min” value was “H (% remaining = 75-100%)”. In data set [2], the intrinsic clearance (microsomal CLint) at 0.1 uM is above 116 µL/min/mg and the “Microsomal Stability Human % rem. 60 min” value is recorded as “F (% remaining = 25-50%)”. This molecule also gave a Rsq in data set [3] (IV, 3 mg/kg) of 0.97. In data set [3] (PO, 10 mg/kg), the Rsq came out at 0.93. The F in data set [3] (Mouse, PO 10 mg/kg vs IV 3 mg/kg) came to 72%. Moreover, in data set [3] (setting [7]), the AUC(0-t) was 5210 ng·h/mL, the highest level (Cmax at 5 min) was 4900 ng/mL and the half-life was 2.2 h. In data set [3] (female, C57BL/6, mouse plasma, IV, 3 mg/kg, read-out: AUCINF_obs), the AUC(0-inf) amounted to 5340 ng·h/mL. In data set [3] (setting [8]), this molecule gave an AUC(0-t) of 12600 ng·h/mL, a Cmax at 5 min of 3510 ng/mL and a half-life of 2.05 h. In data set [3] (female, C57BL/6, mouse plasma, PO, 10 mg/kg, read-out: AUCINF_obs), the AUC(0-inf) was 12600 ng·h/mL. Also, in data set [3] (mouse plasma, IV, 3 mg/kg), the “AUC_% Extrap_obs” value is 2.45%, the Cl_obs was 561.75 mL/h/kg and the Vz_obs was found to be 1784.9 mL/kg. Further, in data set [3] (mouse plasma, PO, 10 mg/kg), the “AUC_% Extrap_obs” value is 0.05%, the Cl_obs is given as 795.88 mL/h/kg and the Vz_obs amounted to 2356.41 mL/kg. In data set [4], this molecule returned an IC50 below 100 nM.

Take `CN1CCN(CCOc2cnc(N[C@H]3CC[C@@H](Oc4nc(N5CCOCC5)cc5ncccc45)CC3)nc2)CC1` [Compound 69, 5-(2-(4-Methylpiperazin-1-yl)ethoxy)-N-((1s,4s)-4-((7-morpholino-1,6-naphthyridin-5-yl)oxy)cyclohexyl)pyrimidin-2-amine]: in data set [1], the microsomal CLint at 0.1 uM was above 116 µL/min/mg and the “Microsomal Stability Mouse % rem. 60 min” value is “F (% remaining = 25-50%)”. For the same molecule, in data set [2], the microsomal CLint at 0.1 uM was below 116 µL/min/mg and the “Microsomal Stability Human % rem. 60 min” value is given as “G (% remaining = 50-75%)”. In data set [3] (setting [7]), the AUC(0-t) is 1630 ng·h/mL, the half-life was 4.63 h and the Cmax was 611 ng/mL. Also, the AUC(0-inf) in data set [3] (female, C57BL/6, mouse plasma, IV, 3 mg/kg, read-out: AUCINF—obs) came to 2270 ng·h/mL. Further, in data set [3] (setting [8]), the AUC(0-t) was 5680 ng·h/mL, the half-life is 5.4 h and the Cmax was 549 ng/mL. For the same molecule, the AUC(0-inf) in data set [3] (female, C57BL/6, mouse plasma, PO, 10 mg/kg, read-out: AUCINF—obs) worked out at 6070 ng·h/mL. For the same molecule, in data set [3] (mouse plasma, IV, 3 mg/kg), the “AUC—% Extrap—obs” value is 28.28%, the Cl_obs stood at 1321.88 mL/h/kg and the Vz_obs worked out at 8824.88 mL/kg. Further, in data set [3] (mouse plasma, PO, 10 mg/kg), the “AUC—% Extrap—obs” value is listed as 6.56%, the Cl_obs was found to be 1646.25 mL/h/kg and the Vz_obs amounted to 12835.77 mL/kg. Moreover, in data set [3] (mouse, PO, 10 mg/kg), the F is recorded as 105%. For the same molecule, the IC50 in data set [4] was below 100 nM.

For the molecule `CNC(=O)COc1cnc(N[C@H]2CC[C@@H](Oc3nc(N4CCOCC4)cc4ncccc34)CC2)nc1` [Compound 71, N-Methyl-2-((2-(((1s,4s)-4-((7-morpholino-1,6-naphthyridin-5-yl)oxy)cyclohexyl)amino)pyrimidin-5-yl)oxy)acetamide], in data set [1], the microsomal CLint at 0.1 uM is below 116 µL/min/mg and the “Microsomal Stability Mouse % rem. 60 min” value is recorded as “G (% remaining = 50-75%)”. Also, in data set [2], the microsomal CLint at 0.1 uM was below 116 µL/min/mg and the “Microsomal Stability Human % rem. 60 min” value is “F (% remaining = 25-50%)”. The molecule further had an IC50 in data set [4] below 100 nM.

Regarding `CN(C)C(=O)COc1ccc(C(=O)N[C@H]2CC[C@@H](Oc3nc(N4CCOCC4)cc4ncccc34)CC2)cn1` [Compound 117, 6-(2-(dimethylamino)-2-oxoethoxy)-N-((1s,4s)-4-((7-morpholino-1,6-naphthyridin-5-yl)oxy)cyclohexyl)nicotinamide], in data set [1], the microsomal CLint at 0.1 uM was below 116 µL/min/mg and the “Microsomal Stability Mouse % rem. 60 min” value was “F (% remaining = 25-50%)”. Further, in data set [2], the microsomal CLint at 0.1 uM was above 116 µL/min/mg and the “Microsomal Stability Human % rem. 60 min” value is listed as “E (% remaining = 0-25%)”. The molecule also gave an IC50 in data set [4] below 100 nM.

For the molecule `CN(C)C(=O)Cn1ccc(C(=O)N[C@H]2CC[C@@H](Oc3nc(N4CCOCC4)cc4ncccc34)CC2)c1` [Compound 141, 1-(2-(dimethylamino)-2-oxoethyl)-N-((1s,4s)-4-((7-morpholino-1,6-naphthyridin-5-yl)oxy)cyclohexyl)-1H-pyrrole-3-carboxamide], in data set [1], the microsomal CLint at 0.1 uM was below 116 µL/min/mg and the “Microsomal Stability Mouse % rem. 60 min” value is reported as “G (% remaining = 50-75%)”. Also, in data set [2], the microsomal CLint at 0.1 uM is below 116 µL/min/mg and the “Microsomal Stability Human % rem. 60 min” value is listed as “G (% remaining = 50-75%)”. Moreover, the IC50 in data set [4] was below 100 nM.

Regarding `CN(C)C(=O)COc1cnc(N[C@H]2CC[C@@H](Oc3nc(N4CCOCC4)cc4ncc(NS(C)(=O)=O)cc34)CC2)nc1` [Compound 182, N,N-dimethyl-2-((2-(((1s,4s)-4-((3-(methylsulfonamido)-7-morpholino-1,6-naphthyridin-5-yl)oxy)cyclohexyl)amino)pyrimidin-5-yl)oxy)acetamide], in data set [1], the microsomal CLint at 0.1 uM was below 116 µL/min/mg and the “Microsomal Stability Mouse % rem. 60 min” value is on record as “G (% remaining = 50-75%)”. Moreover, in data set [2], the microsomal CLint at 0.1 uM was below 116 µL/min/mg and the “Microsomal Stability Human % rem. 60 min” value was “G (% remaining = 50-75%)”. In data set [4], this molecule yielded an IC50 of 100 to 1000 nM.
